Read-outs that look alike come from different tables or passages of the source.
Legend:
HepaRG spheroids = test: Combined HCI (HCS) and cellular ATP 3D assay in HepaRG spheroids; details: HepaRG; for AC50 / minimal effective concentration: Homo sapiens
hLiMTs [1] = test: Combined HCI (HCS) and cellular ATP 3D assay in hLiMTs; details: for AC50 / minimal effective concentration: Homo sapiens
PHH = details: cited from earlier work
hLiMTs [2] = details: cited from earlier work
[3] = system: THLE or HepG2 cells, isolated mitochondria, BSEP; details: In vitro Assay; ref Aleo 2019; cited from earlier work
[4] = cited from earlier work
[5] = cited from earlier work; remark: listed apart in the source
human hepatocytes = details: In vitro Assay; ref Xu 2008; cited from earlier work
HepG2 cells [6] = details: In vitro Assay; ref Persson 2013; cited from earlier work
HepG2 cells [7] = details: In vitro Assay; ref O'Brien 2006; cited from earlier work
[8] = system: isolated mouse liver mitochondria; details: In vitro Assay; ref Porceddu 2012; cited from earlier work
[9] = system: primary human hepatocytes, NIH3T3 fibroblasts, BSEP, CYP3A4; details: In vitro Assay; ref Schadt 2015; cited from earlier work
[10] = In vitro Assay, ref Proctor 2017

Compound | DILI +VE (5-8), DILI -VE (-4) ([4]; ref Chen 2016) | DILI severity category ([4]; ref Chen 2016) | In vivo DILI ([5]; ref O'Brien 2006) | In vivo DILI ([5]; ref Persson 2013) | Cluser analysis (HepG2 cells [6]) | Structural based (HCI) (HepG2 cells [6]) | Structural based (HCI) (HepG2 cells [7]) | further results
NCCCC(O)(P(=O)(O)O)P(=O)(O)O [alendronate] |  |  |  |  |  |  |  | HepaRG <10 uM All (HepaRG spheroids; all endpoints, cut-off <10 uM): +ve (<10 uM); AC50 (HepaRG spheroids; read-out: ATP endpoint AC50): 0.822 µM; minimal effective concentration (HepaRG spheroids; read-out: ATP endpoint MEC): 0.291 µM; AC50 (HepaRG spheroids; read-out: HCS endpoint AC50): 3.13 µM; minimal effective concentration (HepaRG spheroids; read-out: HCS endpoint MEC): 0.58 µM; AC50 (hLiMTs [1]; read-out: ATP endpoint AC50): 7.71 µM; minimal effective concentration (hLiMTs [1]; read-out: ATP endpoint MEC): 2.86 µM; AC50 (hLiMTs [1]; read-out: HCS endpoint AC50): 15.6 µM; minimal effective concentration (hLiMTs [1]; read-out: HCS endpoint MEC): 2.24 µM; hLiMTs <10 uM All (hLiMTs [1]; hLiMTs, all endpoints, cut-off <10 uM): +ve (<10 uM); PHH/100uM, Proctor (2017) (PHH; 2D PHH, ATP, IC50 threshold 100 µM, ref Proctor et al. 2017): -VE; PHH ATP <100uM (PHH; [10]): -VE; hLiMTs ATP <100uM (hLiMTs [2]; [10]): -VE; hLiMTs/100uM, Proctor (2017) (hLiMTs [2]; hLiMTs, ATP, IC50 threshold 100 µM, ref Proctor et al. 2017): -VE
C[C@@](Cc1ccc(O)c(O)c1)(NN)C(=O)O [carbidopa] | -VE | Ambiguous DILI-concern | -VE | -VE | -VE | -VE | -VE | Partition Hybrid HRM Score [3]: -VE; Ro2 Hybrid HRM Score [3]: -VE; In vivo DILI ([5]; ref Xu 2008): -VE; Structural based (HCI) (human hepatocytes): -VE
COc1cc(N)c(Cl)cc1C(=O)NC1CCN(CCCOc2ccc(F)cc2)CC1OC (centres unmarked) [cisapride] |  |  | -VE | -VE | -VE | -VE | +VE | In vivo DILI ([5]; […]): -VE; In vivo DILI ([5]; ref Xu 2008): -VE; Structural based (HCI) (human hepatocytes): -VE
C[N+](C)(C)CCOP(=O)(O)OP(=O)([O-])OC[C@H]1O[C@@H](n2ccc(N)nc2=O)[C@H](O)[C@@H]1O [citicoline] |  |  | -VE | -VE | -VE | -VE | +VE (lowest HCI endpoint IC50 (or in the absence of dose–response < 100 µM) < 30 × total human plasma exposure levels (Cmax.tot)) | 
CCOC(=O)C(C)(C)Oc1ccc(Cl)cc1 [clofibrate] | +VE | vLess-DILI-Concern | +VE | +VE | -VE | -VE | +VE | Partition Hybrid HRM Score [3]: +VE; Ro2 Hybrid HRM Score [3]: +VE; In vivo DILI ([5]; […]): -VE; In vivo DILI ([5]; ref Aleo 2019): +VE
O=C1Nc2ccc(Cl)cc2[C@@](C#CC2CC2)(C(F)(F)F)O1 [efavirenz] | +VE | vMost-DILI-Concern | +VE | +VE | +VE | +VE | +VE (lowest HCI endpoint IC50 (or in the absence of dose–response < 100 µM) < 30 × total human plasma exposure levels (Cmax.tot)) | 
CNC(=O)Oc1ccc2c(c1)[C@]1(C)CCN(C)[C@@H]1N2C [eserine] |  |  | -VE | -VE | -VE | -VE | +VE (lowest HCI endpoint IC50 (or in the absence of dose–response < 100 µM) < 30 × total human plasma exposure levels (Cmax.tot)) | In vivo DILI ([5]; ref Xu 2008): -VE; Structural based (HCI) (human hepatocytes): -VE
CCN1C(=O)NC(c2ccccc2)C1=O (centres unmarked) [ethotion] |  |  |  |  |  |  |  | PHH ATP <100uM (PHH): -VE; hLiMTs ATP <100uM (hLiMTs [2]): -VE
CCOC(=O)C1=C(C)NC(C)=C(C(=O)OC)C1c1cccc(Cl)c1Cl (centres unmarked) [felodipine] |  |  |  |  |  |  |  | DILI +VE (5-8), DILI -VE (-4) ([4]; in vivo): +VE; DILI severity category ([4]; in vivo): vLess-DILI-Concern; In vivo DILI ([5]; in vivo): -VE; PHH ATP <100uM (PHH): -VE; hLiMTs ATP <100uM (hLiMTs [2]): -VE
CCC1=C(C)CN(C(=O)NCCc2ccc(S(=O)(=O)NC(=O)N[C@H]3CC[C@H](C)CC3)cc2)C1=O [glimepiride] | +VE | vLess-DILI-Concern | -VE | -VE | -VE | -VE | -VE | Partition Hybrid HRM Score [3]: -VE; Ro2 Hybrid HRM Score [3]: -VE; In vivo DILI ([5]; ref Aleo 2019): +VE; In vivo DILI ([5]; ref Porceddu 2012): +VE; In vivo DILI ([5]; ref Xu 2008): -VE; in vitro data EC2<=1x Cmax [8]: -VE; in vitro data EC20<=2uM [8]: +VE; Structural based (HCI) (human hepatocytes): -VE
O=[N+]([O-])O[C@H]1CO[C@H]2[C@@H]1OC[C@H]2O[N+](=O)[O-] [isosorbide dinitrate] | -VE | vNo-DILI-Concern | -VE | -VE | -VE | -VE | +VE (lowest HCI endpoint IC50 (or in the absence of dose–response < 100 µM) < 30 × total human plasma exposure levels (Cmax.tot)) | 
C[N+](C)(C)C[C@H](O)CC(=O)[O-] [levocarnitine] |  |  |  |  |  |  |  | In vivo DILI ([5]; ref Proctor 2017): -VE; PHH ATP <100uM (PHH; [10]): -VE; hLiMTs ATP <100uM (hLiMTs [2]; [10]): -VE
Cc1cnc(NC(=O)C2=C(O)c3ccccc3S(=O)(=O)N2C)s1 [meloxicam] |  |  |  |  |  |  |  | DILI +VE (5-8), DILI -VE (-4) ([4]; in vivo): +VE; DILI severity category ([4]; in vivo): vLess-DILI-Concern; Cellular toxicity (3T3 cells) [9]: -VE; Combined Assay [9]: -VE; GSH adduct HML [9]: -VE; Hepatocyte cellular toxicity [9]: -VE; MitoTox 3T3 [9]: -VE; TDI CYP3A4 [9]: -VE; hBSEP inhibition [9]: -VE; PHH ATP <100uM (PHH): -VE; hLiMTs ATP <100uM (hLiMTs [2]): -VE
CO[C@@]12[C@H](COC(N)=O)C3=C(C(=O)C(C)=C(N)C3=O)N1C[C@@H]1N[C@@H]12 [mitomycin] |  |  |  |  |  |  |  | PHH ATP <100uM (PHH): +VE (key: +VE: IC50 threshold of 100 µM)
O=C(CCNNC(=O)c1ccncc1)NCc1ccccc1 [nialamide] | +VE | vMost-DILI-Concern | -VE | -VE | -VE | -VE | +VE (lowest HCI endpoint IC50 (or in the absence of dose–response < 100 µM) < 30 × total human plasma exposure levels (Cmax.tot)) | 
CO[C@@H]1[C@@H](OC(N)=O)[C@@H](O)[C@H](Oc2ccc3c(O)c(NC(=O)c4ccc(O)c(CC=C(C)C)c4)c(=O)oc3c2C)OC1(C)C [novobiocin] |  |  | +VE | +VE | -VE | -VE | -VE | In vivo DILI ([5]; ref Porceddu 2012): +VE; In vivo DILI ([5]; ref Xu 2008): +VE; in vitro data EC2<=1x Cmax [8]: -VE; in vitro data EC20<=2uM [8]: +VE; Structural based (HCI) (human hepatocytes): +VE
CC[N+](C)(CC)CCOC(=O)C(O)(c1ccccc1)C1CCCCC1 (centres unmarked) [oxyphenonium] |  |  | -VE | -VE | -VE | -VE | -VE | In vivo DILI ([5]; ref Xu 2008): -VE; Structural based (HCI) (human hepatocytes): -VE
OC(CCN1CCCC1)(c1ccccc1)C1CCCCC1 (centres unmarked) [procyclidine] |  |  |  |  |  |  |  | DILI +VE (5-8), DILI -VE (-4) ([4]; in vivo): -VE; DILI severity category ([4]; in vivo): vNo-DILI-Concern; In vivo DILI ([5]; in vivo): -VE; PHH ATP <100uM (PHH): +VE (key: +VE: IC50 threshold of 100 µM); hLiMTs ATP <100uM (hLiMTs [2]): -VE
Cn1c(=O)c2[nH]cnc2n(C)c1=O [theophylline] |  |  |  |  |  |  |  | Cellular toxicity (3T3 cells) [9]: -VE; Combined Assay [9]: -VE; GSH adduct HML [9]: -VE; Hepatocyte cellular toxicity [9]: -VE; MitoTox 3T3 [9]: -VE; TDI CYP3A4 [9]: -VE; hBSEP inhibition [9]: -VE; PHH ATP <100uM (PHH): -VE; hLiMTs ATP <100uM (hLiMTs [2]): -VE
Cc1ncc(C[n+]2csc(CCO)c2C)c(N)n1 [thiamine] | -VE | vNo-DILI-Concern | -VE | -VE | -VE | -VE | +VE (lowest HCI endpoint IC50 (or in the absence of dose–response < 100 µM) < 30 × total human plasma exposure levels (Cmax.tot)) | 
CC1(C)O[C@@H]2[C@@H](CO[C@@]3(COS(N)(=O)=O)OC(C)(C)O[C@@H]23)O1 [topiramate] | +VE | vLess-DILI-Concern | -VE | -VE | -VE | -VE | +VE (lowest HCI endpoint IC50 (or in the absence of dose–response < 100 µM) < 30 × total human plasma exposure levels (Cmax.tot)) | 
CC1=C(/C=C/C(C)=C/C=C/C(C)=C/C(=O)O)C(C)(C)CCC1 [tretinoin] | -VE | Ambiguous DILI-concern |  |  |  |  |  | In vivo DILI ([5]; ref Proctor 2017): +VE; PHH ATP <100uM (PHH; [10]): -VE; hLiMTs ATP <100uM (hLiMTs [2]; [10]): +VE (IC50 threshold of 100 µM)

Source: article PMC7395068, “The evolution of strategies to minimise the risk of human drug-induced liver injury (DILI) in drug discovery and development” (Archives of Toxicology, 2020)
